Source: article PMC5575254, “An allosteric ligand-binding site in the extracellular cap of K2P channels” (Nature Communications, 2017)

Molecular target: T1, TREK-2 (Homo sapiens, UniProt P57789)
T1 construct: expressed in transfected cells; host or cells: CHO cells, transient transfection
T1 sequence (P57789 1-538): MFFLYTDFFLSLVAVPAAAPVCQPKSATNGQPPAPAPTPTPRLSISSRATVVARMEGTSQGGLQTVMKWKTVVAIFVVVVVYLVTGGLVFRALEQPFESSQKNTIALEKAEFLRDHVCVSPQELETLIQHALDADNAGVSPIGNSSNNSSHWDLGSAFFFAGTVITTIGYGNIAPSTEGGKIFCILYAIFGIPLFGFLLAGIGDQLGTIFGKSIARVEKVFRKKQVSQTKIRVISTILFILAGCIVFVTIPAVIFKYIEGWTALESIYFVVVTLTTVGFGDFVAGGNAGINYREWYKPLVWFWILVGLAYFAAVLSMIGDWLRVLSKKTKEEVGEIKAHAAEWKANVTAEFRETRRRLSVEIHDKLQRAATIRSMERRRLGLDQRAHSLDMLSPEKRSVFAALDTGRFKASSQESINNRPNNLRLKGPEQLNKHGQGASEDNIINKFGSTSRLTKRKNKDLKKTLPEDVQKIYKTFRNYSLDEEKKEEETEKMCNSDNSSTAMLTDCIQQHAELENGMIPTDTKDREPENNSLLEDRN
Assay: Whole-cell voltage clamp of CHO cells expressing TREK-2
Format: cell-based
Conditions: mean ± s.e.m
Excerpt: cDNA of the human TREK-1, TREK-2 and TRAAK channels were subcloned into the pEGFPN1 expression vector (Invitrogen), respectively. Mutations were introduced into TREK-1 or TRAAK by PCR using the QuickChange XL sitedirected mutagenesis kit (Agilent Technologies) and were subsequently confirmed by DNA sequencing.
Chinese hamster ovary (CHO) cells were provided by the Cell Bank of Chinese Academy of Sciences (Shanghai, China). CHO cells were maintained in DMEM/F12 (Gibco) supplemented with 10% fetal bovine serum (Gibco) and 100 μg ml^−1 penicillin-streptomycin (Cellgro) in a humidified incubator at 37 °C (5% CO2). For electrophysiology experiments, cells plated in 35 mm tissue culture dishes (Corning Incorporated) were transiently transfected with the plasmids using PolyJet™ reagent (SignaGen) according to the manufacturer’s instructions. Primers used in this study are listed in Supplementary Table 4.
All electrophysiological recordings were obtained using patch-clamp recordings in two different configurations: (1) whole cell for macroscopic current dose–response curves; and (2) outside-out and inside-out for macroscopic currents recordings.
All patch-clamp recordings were conducted 36–96 h after transfection with an Axopatch-200B amplifier (Molecular Devices) at room temperature (23–25 °C). The microelectrodes fashioned from 1.5 mm thin-walled borosilicate glass with filament were pulled from Flaming/Brown type micropipette puller (P-97; SUTTER INSTRUMENT) with the resistances of 3–7 MΩ (whole cell) or 7–15 MΩ (outside-out) when filled with a solution containing (in mM): 140 KCl, 2 MgCl2, 10 EGTA, 1 CaCl2, 10 HEPES (pH 7.3, adjusted with KOH). External solution contained (in mM): 150 NaCl, 5 KCl, 0.5 CaCl2, 1.2 MgCl2, 10 HEPES (pH 7.3, adjusted with NaOH). The current signals were filtered at 1 kHz and digitized at a 10 kHz sampling frequency by using DigiData 1440 A.
Data of whole-cell voltage clamp experiments were fitted using doseResp function. The half inhibition concentrations were derived from fits of the dose–response curves to the function:1 I/I0=A1+A2-A1/1+10^logx0-xP, where I 0 and I are current amplitudes before and after application of inhibitors; A 1 and A 2 are constants between 0 and 1; x is the concentration of inhibitor; x o is the concentration when 50% inhibition was reached (IC50), P is the Hill constant.

Q: Which IC50 does the source give for `CS(=O)(=O)N(CC(=O)N1CCc2ccccc2C1)c1ccc(Cl)cc1` [TKDC, N-(4-cholorphenyl)-N-(2-(3,4-dihydrosioquinolin-2(1H)-yl)-2-oxoethyl)methanesulfonamide] here?
A: The IC50 was 5.2 ± 1.9 µM.
